According to patent US4524068A, “Cyclodextrin inclusion complex of piperonyl butoxide” (priority 1982, dated 1985):
Values after ≈ are worked out from the molar mass of the structure shown.

Experiments:
Sitophilus granarius [1] = test: Knock-down effect of tetrametrin and cinerin I with synergist (Example 10); type: in vivo, Sitophilus granarius (Corn-Weevil); settings: pyrethroide:synergistic agent 1:4
Description: (§1) As insecticide tetrametrin and cinerin I are used. The insecticidal effect is tested on 2-4 weeks' old Sitophilus granarius (Corn-Weevil) imago.
(§2) Piperonyl butoxide and the complex of piperonyl butoxide and cyclodextrin are applied as described in Example 9. The ratio of pyrethroide and synergistic agent amounts to 1:4 in all cases. The efficiency of insecticidal effect is proportional to the value of the 24 hours' mortality (killing effect).

Sitophilus granarius [2] = test: 24 hours' mortality of tetrametrin and cinerin with synergist (Example 10); settings: for mortality at 10 mg/disk: Sitophilus granarius, 24 h, read-out: 24 hours' mortality, Paralitical and killed insects
Description: as §1, §2

[3] = tested on: Drosophila melanogaster Meigen (vinegar midge); test: 24 hours' mortality of tetrametrin on midges pre-fed with piperonyl butoxide or its complex (Example 8); type: in vivo; settings: pre-fed with synergist
Description: The emulsion and suspension also contain 5% of sucrose.
Next day the 24 hours' mortality is determined.

physchem = settings: water
[4] = cited from earlier work

Row | Structure (SMILES) | Knock-down effect (Sitophilus granarius [1]; 90 minutes) | Knock-down effect (Sitophilus granarius [1]; 170 minutes) | Knock-down effect (Sitophilus granarius [1]; 210 minutes) | Knock-down effect (Sitophilus granarius [1]; 300 minutes) | mortality at 10 mg/disk (Sitophilus granarius [2]) [%] | 24 hours' mortality; Paralitical and killed insects (Sitophilus granarius [2]; pyrethroide dose 1.250 mg/disk, pyrethroid:synergist 1:4) [%] | Mortality (24 hours mortality; killing effect) ([3]; tetrametrin dose 0.078 mg/disk) [%] | Mortality (24 hours mortality; killing effect) ([3]; tetrametrin dose 0.156 mg/disk) [%] | Mortality (24 hours mortality; killing effect) ([3]; tetrametrin dose 0.313 mg/disk) [%] | Mortality (24 hours mortality; killing effect) ([3]; tetrametrin dose 0.625 mg/disk) [%] | Mortality (24 hours mortality; killing effect) ([3]; tetrametrin dose 1.250 mg/disk) [%] | Mortality (24 hours mortality; killing effect) ([3]; tetrametrin dose 5.000 mg/disk) [%] | solubility at 1 h (physchem) [µg/mL] | solubility in organic solvents ([4]; organic solvents) | solubility in water ([4]; water)
1 | CC(C)=CC1C(C(=O)OCN2C(=O)C3=C(CCCC3)C2=O)C1(C)C (centres unmarked) [tetrametrin] | 0 | 9 | 9 | 6 | 41 | – | – | – | – | – | – | – | – | – | –
2 | C/C=C\CC1=C(C)[C@@H](OC(=O)[C@@H]2[C@@H](C=C(C)C)C2(C)C)CC1=O [cinerin] | 6 | 9 | 8 | 2 | 31 | 0 | – | – | – | – | – | – | – | – | –
3 | CCCCOCCOCCOCc1cc2c(cc1CCC)OCO2 [piperonyl butoxide, 5-{[2-(2-butoxy-ethoxy)-ethoxy]-methyl}-6-propyl-1,3-benzodioxole] | – | – | – | – | – | – | 0 | 8 | 34 | 48 | 100 | 100 | 66 (≈ 195 µM) | soluble in organic solvents | substantially insoluble in water
